Measured values as given in patent publication US20160052918A1, “SMALL COMPOUNDS TARGETING TACC3” (JAPANESE FOUNDATION FOR CANCER RESEARCH, priority 2012, published 2016).
In brackets after ≈: the same amount, converted by molar mass.

Legend:
Assay type in all cases: cell-based
[1] = test system: SKOV-3 cells expressing EGFP-α-tubulin; test: Cell fate determination by time-lapse photography, SKOV-3; conditions: 13.3 μg/ml SPL-A or 2.7 μg/ml SPL-B
Experimental: (§1) The cells used were SKOV-3 cells and OVCAR-3 cells expressing EGFP-α-tubulin.
(§2) The OVCAR-3 cells expressing EGFP-α-tubulin were obtained using the same procedure as that for the SKOV-3 cells expressing EGFP-α-tubulin. The cells supplemented with each of SPL-A and SPL-B were synchronized by double thymidine block in the same way as in Example 2. Images were obtained by time-lapse photography and analyzed. The cells of each line were treated with 13.3 μg/ml SPL-A or 2.7 μg/ml SPL-B. The cell fate was manually determined from the image sequence of at least 50 cells with the time point of nuclear envelope breakdown defined as 0.

[2] = test system: SKOV-3 cells; test: Abnormal spindle morphology by immunostaining, SKOV-3; conditions: 24 hours
Experimental: (§3) SPL-A was added at each concentration to the SKOV-3 or OVCAR-3 cells. Twenty four hours after incubation, the cells were fixed and immunostained using antibodies against cell division-related substances such as α-tubulin described below. The percentage of spindle morphology was determined from at least 50 cells. The data was indicated by a mean of three independent experiments and SD.
(§4) The immunostaining was carried out by the following method: the cells were fixed in 3.7% PFA, methanol, or 10% TCA on a chamber slide, then permeabilized with 0.2% Triton-X100 in PBS, and incubated with primary antibodies. A monoclonal antibody (DM1A) against α-tubulin and monoclonal antibodies (DQ19 and GTU-88) against γ-tubulin were obtained from Sigma-Aldrich Corp. An anti-centrin 2 antibody (sc-27793) was purchased from Santa Cruz Biotechnology, Inc. Fluorescent labelled goat anti-mouse IgG (Cappel) and Cy3 labelled goat anti-rabbit IgG (Millipore) antibodies were used as secondary antibodies. DNA was detected using 4,6-diamidino-2-phenylindole (DAPI). Images were obtained using Leica DM6000B microscope equipped with ×100/1.40-0.70 PlanApo objective lens and Z-projections.
(§5) FIGS. 5A and B show the results of analyzing spindle morphology. The percentage of spindle morphology was indicated by the percentage (%) of normal, multipolar, disorganized, or monopolar spindles to the number of mitotic cells. […]

[3] = test system: normal cell lines hTERT-RPE, MCF 10A, and 184B5; test: G2/M-phase cells by PI flow cytometry, normal cell lines; conditions: 3 normal cell lines, 24 hours, FIG. 10
Experimental: (§6) (A) Two cancer cell lines SKOV-3 and OVCAR-3 and three normal cell lines hTERT-RPE, MCF 10A, and 184B5 were treated with SPL-A at concentrations shown in the abscissa of FIG. 10A for 24 hours, then stained with propidium iodide (PI), and analyzed by flow cytometry.
(§7) The same two cancer cell lines and three normal cell lines as in (A) were treated with each of paclitaxel, vincristine, and vinblastine acting on microtubule formation, S-trityl-L-cysteine (STLC) and SB743921 acting on proteins involved in mitosis, an Aurora kinase inhibitor VX680, and a polo-like kinase (PLK) inhibitor BI2536 at concentrations shown in the abscissa of FIG. 10B for 24 hours, then stained with propidium iodide (PI), and analyzed by flow cytometry.

[4] = test system: mouse lymphoma cell line; test: Cell death of lymphoma (survival rate, WST-1); conditions: 72 h, IC50=50% survival rate, three days
Experimental: The synthesized compounds were analyzed for their activity against cell death induction using a mouse lymphoma cell line (see Non Patent Literature 12), which was a cell line derived from thymic lymphoma developed in p53KO mouse.
The number of the lymphoma cells was adjusted to 1.2×10^5 cells/ml. The cells were inoculated at a concentration of 50 μl/well to a 96-well culture dish. A medium containing each RT compound as the novel compound of the present invention at twice the concentration of 50 μl was further added thereto (final concentration: 0.021 to 13.3 μg/ml). Three days after cultivation, the survival rate was calculated using WST-1 reagent (manufactured by F. Hoffmann-La Roche, Ltd.).

[5] = test system: cancer cell lines SKOV-3 and OVCAR-3; test: G2/M-phase cells by PI flow cytometry, cancer cell lines; conditions: two cancer cell lines, 24 hours, FIG. 10
Experimental: as §6, §7

[6] = test system: OVCAR-3 cells; test: Abnormal spindle morphology by immunostaining, OVCAR-3; conditions: 24 hours
Experimental: as §3, §4, §5

[7] = test system: SKOV-3 cells expressing EGFP-α-tubulin; test: Mitotic arrest of synchronized EGFP-α-tubulin-expressing SKOV-3 cells, time-lapse single-cell analysis
Experimental: The EGFP-α-tubulin-expressing cells used in the assay will be described. In order to observe mitosis under a fluorescence microscope, cells expressing EGFP-α-tubulin (fusion protein of a fluorescent protein, EGFP, and α-tubulin) were prepared. A system observable under a fluorescence microscope without cell fixation was prepared.
Ovary cancer cells SKOV-3 were cultured in an RPMI1640 medium supplemented with 5% fetal bovine serum. Stable cells expressing EGFP-α-tubulin were transduced by lentiviral transduction using pLenti4/V5-DEST vectors (Registered Trade Mark) (manufactured by Invitrogen Corp.) and selected by the FACS sorting of infected cells using Zeocin (Registered Trade Mark) and subsequent FACSAria (Registered Trade Mark) (Becton, Dickinson and Company).
The compounds NPD2448, NPD2568, NPD3574, NPD4089, and C7—O-propylated NPD3574 were each added at varying concentrations to the culture medium of SKOV-3 cells expressing EGFP-α-tubulin and analyzed for their effect on cell division.
The SKOV-3 cells expressing EGFP-α-tubulin were synchronized by thymidine block to analyze the effect on cell division of each compound. As shown in the upper part of FIG. 2, each compound was added to the culture medium after the 1st thymidine block. After synchronization by the second thymidine block, images were taken every 2 minutes for 3 days using Leica AF6000 and ×20/0.5 Plan Fluotar objective lens in a phenol red-free RPMI1640 medium supplemented with 5% fetal bovine serum. These time-lapse images were analyzed using ImageJ 1.42a software, and the time of mitotic arrest was determined by visual judgment. The duration of mitosis was manually determined from the image sequences of at least 50 cells.
The mitotic arrest (EC50=50% arrest rate) was tested by the microscopic analysis of individual single cells.
EGFP-α-tubulin-expressing SKOV-3 cells synchronized by double thymidine block in the same way as in Example 2 were treated with each synthesized compound and subjected to time-lapse photography for 3 days. At least 50 cells were observed. The time of arrest of each cell was calculated, and EC50 was determined therefrom.
EGFP-α-tubulin-expressing SKOV-3 cells supplemented with each of SPL-A and SPL-B at varying concentrations were synchronized by double thymidine block in the same way as in Example 2. Analysis based on single cells was conducted by time-lapse photography. The duration of mitosis was measured from the image sequences of at least 50 cells.

[8] = test system: OVCAR-3 cells expressing EGFP-α-tubulin; test: Cell fate determination by time-lapse photography, OVCAR-3; conditions: 13.3 μg/ml SPL-A or 2.7 μg/ml SPL-B
Experimental: as §1, §2

inhibitory effect on cell division [3]: no inhibitory effect on cell division | EC50 ([7]; Homo sapiens, SK-OV-3, 72 h, mitotic arrest, EC50=50% arrest rate, double thymidine block, time-lapse 3 days, at least 50 cells, read-out: SKOV3 EC50): 0.79 µg/mL (≈ 1.77 µM)
Compound: O=c1cc(-c2cc3ccccc3oc2=O)c2ccc(O)c(CN3CCC(CCO)CC3)c2o1 [RT-011]
cell fate of most cells [1]: mitotic slippage | percentage of cells with multipolar spindles ([2]; SKOV-3, 1.25 μg/ml): 53.3% | percentage of cells with disorganized spindles ([2]; SKOV-3, 5 μg/ml): 56.7% | IC50 [4]: 2.15 µg/mL (≈ 4.8 µM) | percentage of G2/M-phase cells / cell division [5]: increased the percentage of G2/M-phase cells in a concentration-dependent manner | percentage of cells with multipolar spindles ([6]; OVCAR-3, 1.25 μg/ml): 44.0% | percentage of cells with disorganized spindles ([6]; OVCAR-3, 2.5 μg/ml): 57.3% | concentration at which mitotic arrest was induced ([7]; Example 5, FIG. 3, final concentrations): 2.667 µg/mL | inhibitory effects on cell growth ([7]; summary of Table 2 (SKOV-3 mitotic arrest and lymphoma cell death)): remarkable inhibitory effects on cell growth | cell fate of most cells [8]: mitotic death
